Test results from ChEMBL document CHEMBL1141294, “Renierosides, cerebrosides from a marine sponge Haliclona (Reniera) sp” (2007).

Assays:
Format in all cases: functional
Details in all cases: read-out: ED50 (the source's name)
SK-MEL-2 = experiment: Cytotoxicity against human SK-MEL-2 cells
A549 = experiment: Cytotoxicity against human A549 cells
SK-OV-3 = experiment: Cytotoxicity against human SK-OV-3 cells
XF498 = experiment: Cytotoxicity against human XF498 cells
HCT-15 = experiment: Cytotoxicity against human HCT15 cells

Measured: EC50

CCCCCCC/C=C/C=C/CC/C=C/[C@@H](O)[C@H](CO[C@@H]1O[C@H](CO)[C@@H](O)[C@H](O)[C@H]1O)NC(=O)[C@H](O)CCCCCCCCCCCCCC/C=C\CCCCCCCC [RENIEROSIDE A2]
> 10 µg/mL: SK-MEL-2 | A549 | SK-OV-3 | XF498 | HCT-15

CCCCCCC/C=C/C=C/CC/C=C/[C@@H](O)[C@H](CO[C@@H]1O[C@H](CO)[C@@H](O)[C@H](O)[C@H]1O)NC(=O)[C@H](O)CCCCCCCCCCCCCCCCCCCCCC [RENIEROSIDE A5]
> 10 µg/mL: SK-MEL-2 | A549 | SK-OV-3 | XF498 | HCT-15

CCCCCC/C=C\CCCCCCCCCCCCCCCCCC[C@@H](O)C(=O)N[C@@H](CO[C@@H]1O[C@H](CO)[C@@H](O)[C@H](O)[C@H]1O)[C@H](O)/C=C/CC/C=C/C=C/CCCCCCC [RENIEROSIDE A1]
> 10 µg/mL: SK-MEL-2 | A549 | SK-OV-3 | XF498 | HCT-15

CCCCCCC/C=C/C=C/CC/C=C/[C@@H](O)[C@H](CO[C@@H]1O[C@H](CO)[C@@H](O)[C@H](O)[C@H]1O)NC(=O)[C@H](O)CCCCCCCCCCCCCCCCCCCC [RENIEROSIDE A4]
> 10 µg/mL: SK-MEL-2 | A549 | SK-OV-3 | XF498 | HCT-15

CCCCCC/C=C\CCCCCCCCCCCCCCCCCC[C@@H](O)C(=O)N[C@@H](CO[C@@H]1O[C@H](CO)[C@@H](O)[C@H](O)[C@H]1O)[C@H](O)/C=C/CC/C=C(C)/C=C/CCCCCCC [RENIEROSIDE B1]
> 10 µg/mL: SK-MEL-2 | A549 | SK-OV-3 | XF498 | HCT-15

CCCCCC/C=C\CCCCCCCCCCCCCCCCC[C@@H](O)C(=O)N[C@@H](CO[C@@H]1O[C@H](CO)[C@@H](O)[C@H](O)[C@H]1O)[C@H](O)/C=C/CC/C=C(C)/C=C/CCCCCCC [RENIEROSIDE B3]
> 10 µg/mL: SK-MEL-2 | A549 | SK-OV-3 | XF498 | HCT-15

CCCCCCC/C=C/C=C/CC/C=C/[C@@H](O)[C@H](CO[C@@H]1O[C@H](CO)[C@@H](O)[C@H](O)[C@H]1O)NC(=O)[C@H](O)CCCCCCCCCCCCC/C=C\CCCCCCCC [RENIEROSIDE A3]
> 10 µg/mL: SK-MEL-2 | A549 | SK-OV-3 | XF498 | HCT-15

CCCCCCC/C=C/C(C)=C/CC/C=C/[C@@H](O)[C@H](CO[C@@H]1O[C@H](CO)[C@@H](O)[C@H](O)[C@H]1O)NC(=O)[C@H](O)CCCCCCCCCCCCCC/C=C\CCCCCCCC [RENIEROSIDE B2]
> 10 µg/mL: SK-MEL-2 | A549 | SK-OV-3 | XF498 | HCT-15
